Experimental findings from patent publication US10865204B2, “Degradation of cyclin-dependent kinase 4/6 (CDK4/6) by conjugation of CDK4/6 inhibitors with E3 ligase ligand and methods of use” (Dana-Farber Cancer Institute, Inc., priority 2016, dated 2020) are described below.

The target of experiment [1] is T1, CDK4 (Homo sapiens, UniProt P11802). Put plainly: Enzyme degradation assay (western blot), Molt4 wild-type cells, CDK4. Set-up: levels of CDK4, CDK6, and tubulin in wild-type (WT) or cereblon knockout (CRBN−/−) Molt4 cells; endogenous in cells; host or cells: Molt4 cells, wild-type or cereblon knockout (CRBN-/-). Type of experiment: cell-based. The following applies: wild-type (WT) Molt4 cells, various concentrations, FIG. 2. The source says: (§1) Lysates are then cleared by centrifugation.
(§2) Lysates were then cleared by centrifugation.

The target of experiment [2] is T1, CDK4. The experiment can be described thus: Enzyme degradation assay (western blot), Jurkat cells, CDK4. The experiment is classed as cell-based. On the set-up: levels of CDK4, CDK6, and tubulin in wild-type (WT) or cereblon knockout (CRBN−/−) Molt4 cells; endogenous in cells. Particulars: 5 μM, various time points, FIG. 1.
Description: as §1, §2
(In general: Immunoblotting shows a protein as a band on a membrane.)

T1 sequence (P11802 whole entry): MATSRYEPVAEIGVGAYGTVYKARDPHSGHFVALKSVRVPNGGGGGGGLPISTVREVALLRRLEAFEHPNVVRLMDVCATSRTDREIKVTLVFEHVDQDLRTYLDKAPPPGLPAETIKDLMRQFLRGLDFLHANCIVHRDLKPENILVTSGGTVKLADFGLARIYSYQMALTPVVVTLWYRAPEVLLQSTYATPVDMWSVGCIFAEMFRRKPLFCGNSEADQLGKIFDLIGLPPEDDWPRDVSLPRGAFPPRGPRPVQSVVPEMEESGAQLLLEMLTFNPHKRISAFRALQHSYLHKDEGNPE

Take `CC(=O)c1c(C)c2cnc(Nc3ccc(N4CCN(CC(=O)NCCOCCOCCOCCNc5cccc6c5C(=O)N(C5CCC(=O)NC5=O)C6=O)CC4)cn3)nc2n(C2CCCC2)c1=O` (centres unmarked) [Compound I-3, 2-(4-(6-((6-acetyl-8-cyclopentyl-5-methyl-7-oxo-7,8-dihydropyrido[2,3-d]pyrimidin-2-yl)amino)pyridin-3-yl)piperazin-1-yl)-N-(2-(2-(2-(2-((2-(2,6-dioxopiperidin-3-yl)-1,3-dioxoisoindolin-4-yl)amino)ethoxy)ethoxy)ethoxy)ethyl)acetamide]: the “levels of CDK4 (western blot)” value in experiment [1] and in experiment [2] was “unaffected” throughout.
